The experiment concerns the target T1, Ceramide glucosyltransferase (Homo sapiens, UniProt Q16739).
T1 sequence (Q16739 whole entry): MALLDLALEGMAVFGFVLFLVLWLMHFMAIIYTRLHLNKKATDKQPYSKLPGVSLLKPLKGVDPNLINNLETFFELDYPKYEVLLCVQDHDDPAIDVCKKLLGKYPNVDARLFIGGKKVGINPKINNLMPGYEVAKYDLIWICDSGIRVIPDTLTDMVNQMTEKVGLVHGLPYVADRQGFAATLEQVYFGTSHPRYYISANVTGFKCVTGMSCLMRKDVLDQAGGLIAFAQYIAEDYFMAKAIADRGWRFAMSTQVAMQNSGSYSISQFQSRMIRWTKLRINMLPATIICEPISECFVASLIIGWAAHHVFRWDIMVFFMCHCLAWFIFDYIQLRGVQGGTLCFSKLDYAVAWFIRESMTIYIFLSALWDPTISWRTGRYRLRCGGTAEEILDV
The experiment in a line: Inhibition of GCS in human A-375 cells using C6-ceramide and UDP-glucose as substrate preincubated for 30 mins followed by substrate addition measured after 20 hrs by UDP-Glo glucosylceramide synthase based luminometer analysis. Format: cell-based.

One may read the EC50 as the midpoint of the concentration-response curve. Low values mean a more potent agent, high ones a less potent agent.

In turn, `N#Cc1ccc(Cl)c(-c2cccc3cc(C(=O)N[C@H]4CC[C@@H](O)C4)oc23)c1` had an EC50 of 47 pM.

Source of the values: ChEMBL document CHEMBL5131561, “Modified Benzofuran-carboxamide Compounds as Glucosylceramide Synthase Inhibitors for Treating Diseases” (ACS Med Chem Lett, 2022).
